Values quoted from earlier work in patent publication US20230024050A1, “Dermatological Compositions and Methods of Treatment against Cutaneous T-Cell Lymphoma” (Soligenix, Inc., priority 2021, published 2023).
Where two headings read alike, the source gives them in different places.

Key:
[1] = administered intravenously at much higher doses
[2] = tested on: CTCL patients IA, IB, IIA refractory to ≥2 previous treatments; conditions: at end of therapy, time not stated

Structure (SMILES) | Significant AEs on intravenous administration [1] | Response (CAILS), 24 Week ([2]; 6.5 mg/m^2, N = 15) [%^1] | Response (CAILS), 24 Week ([2]; 300 mg/m^2, N = 28) [%^1] | Response (CAILS), 24 Week ([2]; >300 mg/m^2, N = 15) [%^1]
Cc1cc(O)c2c(=O)c3c(O)cc(O)c4c5c(O)cc(O)c6c(=O)c7c(O)cc(C)c8c1c2c(c34)c(c78)c65 [hypericin] | does not cause significant AEs other than those related to photoactivity |  |  | 
C=C(c1ccc(C(=O)O)cc1)c1cc2c(cc1C)C(C)(C)CCC2(C)C [Oral Bexarotene, Bexarotene] |  | 20 | 36 | 47
